The subject of series [1] is IL-6, IL-8 and PGE2. The experiment in a line: TNF-α- and LPS-induced IL-6, IL-8 and PGE2 secretion by SAEC (ELISA). It is filed as cell-based, human. The note with it: siRNA 100 nM 48 h, then TNF-α or LPS 24 h. (In an ELISA, binding on a coated surface is turned into a signal by an enzyme label.)
Series [2] relates to AR. The experiment in a line: RNA interference ablation of AR in SAEC (AR protein by Western blot). It counts as cell-based, human. The note with it: transient transfection of SAEC, 100 nM, 48 h. How it is done: The ablation of AR mRNA was essentially carried out as described in the art. Briefly, 2×10^5 SAECs were plated in a 6-well plate and grown until ˜80% confluency. The cells were incubated with serum-free medium containing the AR-siRNA ([…] (SEQ ID NO:1)) or scrambled siRNA (AAAATCTCCCTAAATCA TACA (SEQ ID NO:2); control) to a final concentration of 100 nM and the RNAiFect™ transfection reagent (Qiagen). The cells were cultured for 48 h at 37° C., and AR expression was determined by measuring AR protein by Western blot analysis using anti-AR antibodies.
The ablation of AR mRNA was essentially carried out as described in the art. Briefly, 2×10^5 SAECs were plated in a 6-well plate and grown till >80% confluency. The cells were incubated with serum-free medium containing the AR-siRNA ([…]) (SEQ ID NO:1) or scrambled siRNA (AAAATCTCCCTAAATCA TACA (SEQ ID NO:2); control) to a final concentration of 100 nM and the RNAiFect™ transfection reagent (Qiagen). The cells were cultured for 48 h at 37° C., and AR expression was determined by measuring AR protein by Western blot analysis using anti-AR antibodies.
On the technique in general: Immunoblotting shows a protein as a band on a membrane.

Series [3] has as its system IL-6, IL-8 and PGE2. The experiment in a line: RW-induced IL-6, IL-8 and PGE2 secretion by SAEC (ELISA). It is filed as cell-based, human. The note with it: siRNA 100 nM, 48 h, then RW 50 μg/ml 24 h. How it is done:
The SAEC were plated in 6-well plates at a density of 2×10^5 cells/well in triplicate for each group. After 24 hours, the medium was replaced with serum-free SABM with or without zopolrestat (20 μM). The growth-arrested and AR ablated cells were stimulated with RW (50 μg/mL) for another 24 hours. The medium was collected from each well, centrifuged and supernatant was analyzed for PGE2 (Cayman Chemical Co., Ann Arbor, Mich.); IL-6 (Diaclone, Stamford, Conn.) and IL-8 (R&D systems Inc, Minneapolis, Minn.) by using an ELISA kits according to the manufacturer's instructions.

Series [4] concerns the target AR (Homo sapiens, UniProt P15121). The following applies: substrate of AR, in the presence of NADPH; cited from earlier work.

With “AATCGGTGTCTCCAACTTCAA (SEQ ID NO:1) (listed as DNA, chemistry not given here) [AR siRNA, siRNA used to ablate AR mRNA in SAEC, 100 nM]”, the “TNF-α and LPS-induced IL-6, IL-8 and PGE2 production after ablation of AR” value in series [1] is listed as “significantly prevented”. Moreover, in series [2], the AR protein abolished is greater than 95%. Further, the “RW-induced synthesis of IL-6, IL-8 and PGE2 after siRNA ablation of AR” value in series [3] is “significantly prevented”.
On to `CCCCCC(O)/C=C/C=O` (stereo not shown) [HNE, 4-hydroxynonenal], for which, in series [4], the Km was 10 to 30 µM.

Broadly, the Km is the substrate concentration at which the rate is half of its maximum.

(Values after patent publication US9198915B2, “Methods involving aldose reductase inhibitors” (The Board of Regents of The University of Texas System, priority 2007, dated 2015).)
